What was measured:
[1] = system: apoptosis induced by anti-convulsants such as phenytoin and carbamazepine; conditions: tissue culture model; only in a dose range well above the plasma levels considered therapeutic in humans; Nonaka et al., 1998; cited from earlier work
[2] = system: neuroapoptosis triggered by a cocktail of anesthetic drugs; conditions: immature rats undergoing anesthesia; subcutaneous; Beals et al, 2003; cited from earlier work
AKT = conditions: infant mice; within 30 minutes after administration of ethanol
ERK = conditions: infant mice; within less than 30 minutes after ethanol administration
immature brains = conditions: Ikonomidou et al., 2000; cited from earlier work

[Li] [Lithium]
antiapoptotic action [1]: act as an antiapoptotic agent

COc1ccc2[nH]cc(CCNC(C)=O)c2c1 [melatonin]
protection against pathological neuroapoptosis (effects of pretreatment) [2]: only modest

CCO [ethanol]
activated isoform of AKT (AKT): marked suppression
activated isoforms of ERK (ERK): rapid decrease
neuroapoptosis responses in immature brains (immature brains): triggers especially severe neuroapoptosis responses

Reference: patent publication EP1830856B1, “PREVENTING PATHOLOGICAL INCREASES IN THE RATE OF NERVE CELL SUICIDE IN IMMATURE NERVOUS SYSTEMS” (Olney, John W., priority 2004, dated 2006)
